# From BindingDB's records for doi:10.1021/jm00364a029 (1983)
# Columns and labels:
# [1] = target: cGMP-dependent 3',5'-cyclic phosphodiesterase (Homo sapiens, UniProt O00408); test: ChEBML_217498
# Description: Inhibition of human lung low-affinity cGMP phosphodiesterases (10-50 uM/L)
# [2] = target: cGMP-specific 3',5'-cyclic phosphodiesterase (Homo sapiens, UniProt O76074); test: ChEBML_217497
# Description: Inhibition of human lung high-affinity cGMP phosphodiesterases (0.5-2 uM/L)
# Chain of cGMP-dependent 3',5'-cyclic phosphodiesterase (O00408 whole entry): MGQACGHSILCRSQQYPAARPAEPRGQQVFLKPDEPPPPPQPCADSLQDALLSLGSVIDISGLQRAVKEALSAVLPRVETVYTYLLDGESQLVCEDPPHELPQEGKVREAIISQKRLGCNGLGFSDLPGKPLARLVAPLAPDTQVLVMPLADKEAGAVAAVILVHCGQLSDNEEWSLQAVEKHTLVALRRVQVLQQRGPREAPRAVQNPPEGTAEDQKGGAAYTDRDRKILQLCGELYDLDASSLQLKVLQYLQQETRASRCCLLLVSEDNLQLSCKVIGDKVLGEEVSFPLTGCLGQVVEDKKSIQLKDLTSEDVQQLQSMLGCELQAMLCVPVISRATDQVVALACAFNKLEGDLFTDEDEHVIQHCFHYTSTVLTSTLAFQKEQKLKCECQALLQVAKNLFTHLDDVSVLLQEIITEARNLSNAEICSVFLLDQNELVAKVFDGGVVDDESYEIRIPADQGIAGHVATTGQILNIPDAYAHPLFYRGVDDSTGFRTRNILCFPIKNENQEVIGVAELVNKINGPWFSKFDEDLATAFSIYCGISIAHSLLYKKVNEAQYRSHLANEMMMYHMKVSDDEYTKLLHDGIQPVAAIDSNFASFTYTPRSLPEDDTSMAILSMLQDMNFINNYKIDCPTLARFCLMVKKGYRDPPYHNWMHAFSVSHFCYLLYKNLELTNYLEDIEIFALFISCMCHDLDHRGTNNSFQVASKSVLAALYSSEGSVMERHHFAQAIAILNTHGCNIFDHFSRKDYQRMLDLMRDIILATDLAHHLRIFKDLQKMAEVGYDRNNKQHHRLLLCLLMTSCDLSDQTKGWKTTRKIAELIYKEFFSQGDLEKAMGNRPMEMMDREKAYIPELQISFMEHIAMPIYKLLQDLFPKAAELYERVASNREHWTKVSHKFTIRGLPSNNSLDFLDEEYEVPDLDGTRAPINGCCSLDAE
compound,measurement,setting,value
"CC(O)Cn1cnc2c1c(=O)n(C)c(=O)n2C (stereo unspecified) [7-(2-Hydroxy-propyl)-1,3-dimethyl-3,7-dihydro-purine-2,6-dione(Proxyphylline)]",Ki,[1],600 µM
same,Ki,[2],600 µM
"C[C@@H](O)Cn1cnc2c1c(=O)n(C)c(=O)n2C [(R)-7-(2-hydroxypropyl)-1,3-dimethyl-1H-purine-2,6(3H,7H)-dione]",Ki,[1],600 µM
same,Ki,[2],600 µM
"C[C@H](O)Cn1cnc2c1c(=O)n(C)c(=O)n2C [(S)-7-(2-hydroxypropyl)-1,3-dimethyl-1H-purine-2,6(3H,7H)-dione]",Ki,[1],700 µM
same,Ki,[2],600 µM
